Bounds are passed on as bounds.

Consider 23 compounds from US11691962B2 (eXIthera Pharmaceuticals, Inc., priority 2018, dated 2023).

For the assay, the target named is Factor XIa (Homo sapiens (Human), UniProt P03951). In words: Factor XIa enzyme inhibition assay (dose response, fluorogenic AMC substrate). The conditions noted are these: read-out: hFXIa IC50. It is filed as biochemical. A digest of the protocol:
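Human FXIa at 0.25 nM final with 50 μM final PyroGlu-Pro-Arg-AMC in 20 mM Hepes pH 7.4, 150 mM NaCl, 0.02% Tween 20. Two-fold serial compound dilutions; fluorescence read every minute for 30 min at 30° C. IC50 from a four-parameter Hill fit.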

Chain of Factor XIa (P03951 388-625): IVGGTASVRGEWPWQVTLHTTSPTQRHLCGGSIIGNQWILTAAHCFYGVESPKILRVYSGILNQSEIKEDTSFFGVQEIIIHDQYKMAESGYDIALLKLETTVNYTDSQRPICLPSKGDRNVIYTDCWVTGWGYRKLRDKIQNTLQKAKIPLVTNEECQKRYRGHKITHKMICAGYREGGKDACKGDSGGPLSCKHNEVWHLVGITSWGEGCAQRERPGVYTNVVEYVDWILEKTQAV
Chain of Factor XIa (P03951 19-387 partner): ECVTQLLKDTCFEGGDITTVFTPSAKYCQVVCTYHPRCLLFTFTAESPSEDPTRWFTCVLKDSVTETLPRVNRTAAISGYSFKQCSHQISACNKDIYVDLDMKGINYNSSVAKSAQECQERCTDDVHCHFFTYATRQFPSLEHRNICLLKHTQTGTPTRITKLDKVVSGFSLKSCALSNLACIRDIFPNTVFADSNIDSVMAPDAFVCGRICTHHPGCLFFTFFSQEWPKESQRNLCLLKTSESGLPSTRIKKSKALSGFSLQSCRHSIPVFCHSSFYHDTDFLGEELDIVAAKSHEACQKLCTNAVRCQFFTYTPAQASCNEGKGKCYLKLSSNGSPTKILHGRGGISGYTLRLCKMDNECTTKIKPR

Turning to `CC[C@@H](NC(=O)N1C(=O)[C@H](Cc2cc(C)nc(N)c2)[C@H]1C(=O)N(C)C1=NCC(=O)N1C)c1ccccc1` [Compound 1-148, (2S,3R)-3-((2-amino-6-methylpyridin-4-yl)methyl)-N2-(5-oxo-1-methyl-4,5-dihydro-1H-imidazol-2-yl)-N1-((R)-1-phenylpropyl)-N2-methyl-4-oxoazetidine-1,2-dicarboxamide], the IC50 was 100 to 1000 nM.
With `CC[C@@H](NC(=O)N1C(=O)[C@H](Cc2cc(C)nc(N)c2)[C@H]1C(=O)N(C)c1ccnn1C)c1cccc(C)c1C` [Compound 1-149, (2S,3R)-3-((2-amino-6-methylpyridin-4-yl)methyl)-N2-(1-methyl-1H-pyrazol-5-yl)-N1-((R)-1-(2,3-dimethylphenyl)propyl)-N2-methyl-4-oxoazetidine-1,2-dicarboxamide], the concentration for half-maximal inhibition (IC50) is 10 to 100 nM.
Then `CC[C@@H](NC(=O)N1C(=O)[C@H](Cc2cc(C)nc(N)c2)[C@H]1C(=O)N(C)c1ccnn1C)c1cccc(F)c1C` [Compound 1-150, (2S,3R)-3-((2-amino-6-methylpyridin-4-yl)methyl)-N2-(1-methyl-1H-pyrazol-5-yl)-N1-((R)-1-(3-fluoro-2-methylphenyl)propyl)-N2-methyl-4-oxoazetidine-1,2-dicarboxamide], with below 10 nM; and `CC[C@@H](NC(=O)N1C(=O)[C@H](Cc2cc(C)nc(N)c2)[C@H]1C(=O)N(C)c1ccnn1C)c1ccc(F)c(C)c1` [Compound 1-153, (2S,3R)-3-((2-amino-6-methylpyridin-4-yl)methyl)-N2-(1-methyl-1H-pyrazol-5-yl)-N1-((R)-1-(4-fluoro-3-methylphenyl)propyl)-N2-methyl-4-oxoazetidine-1,2-dicarboxamide], with below 10 nM.
Under `CC[C@@H](NC(=O)N1C(=O)[C@H](Cc2cc(C)nc(N)c2)[C@H]1C(=O)N(C)c1ccnn1C)c1ccc(C)cc1` [Compound 1-154, (2S,3R)-3-((2-amino-6-methylpyridin-4-yl)methyl)-N2-(1-methyl-1H-pyrazol-5-yl)-N1-((R)-1-(4-methylphenyl)propyl)-N2-methyl-4-oxoazetidine-1,2-dicarboxamide] stands below 10 nM; under `CC[C@@H](NC(=O)N1C(=O)[C@H](Cc2cc(C)nc(N)c2)[C@H]1C(=O)N(C)c1ccnn1C)c1ccc(F)cc1` [Compound 1-156, (2S,3R)-3-((2-amino-6-methylpyridin-4-yl)methyl)-N2-(1-methyl-1H-pyrazol-5-yl)-N1-((R)-1-(4-fluorophenyl)propyl)-N2-methyl-4-oxoazetidine-1,2-dicarboxamide], below 10 nM.
Then `CC[C@@H](NC(=O)N1C(=O)[C@H](Cc2cc(C)nc(N)c2)[C@H]1C(=O)N(C)c1ccnn1C)c1ccc(Cl)cc1` [Compound 1-157, (2S,3R)-3-((2-amino-6-methylpyridin-4-yl)methyl)-N2-(1-methyl-1H-pyrazol-5-yl)-N1-((R)-1-(4-chlorophenyl)propyl)-N2-methyl-4-oxoazetidine-1,2-dicarboxamide], with 10 to 100 nM; and `CC[C@@H](NC(=O)N1C(=O)[C@H](Cc2cc(C)nc(N)c2)[C@H]1C(=O)N(C)c1ccnn1C)c1ccc(F)cc1C` [Compound 1-159, (2S,3R)-3-((2-amino-6-methylpyridin-4-yl)methyl)-N2-(1-methyl-1H-pyrazol-5-yl)-N1-((R)-1-(4-fluoro-2-methylhenyl)propyl)-N2-methyl-4-oxoazetidine-1,2-dicarboxamide], with below 10 nM.
In the case of `CC[C@@H](NC(=O)N1C(=O)[C@H](Cc2cc(C)nc(N)c2)[C@H]1C(=O)N(C)c1ccnn1C)c1ccc(C)cc1F` [Compound 1-160, (2S,3R)-3-((2-amino-6-methylpyridin-4-yl)methyl)-N2-(1-methyl-1H-pyrazol-5-yl)-N1-((R)-1-(2-fluoro-4-methylphenyl)propyl)-N2-methyl-4-oxoazetidine-1,2-dicarboxamide], the 50% inhibitory concentration (IC50) is below 10 nM.
`CC[C@@H](NC(=O)N1C(=O)[C@H](Cc2cc(C)nc(N)c2)[C@H]1C(=O)N(C)c1ccnn1C)c1ccc(C)cc1C` [Compound 1-161, (2S,3R)-3-((2-amino-6-methylpyridin-4-yl)methyl)-N2-(1-methyl-1H-pyrazol-5-yl)-N1-((R)-1-(2,4-dimethylphenyl)propyl)-N2-methyl-4-oxoazetidine-1,2-dicarboxamide]: the half-maximal inhibitory concentration (IC50) is below 10 nM.
Regarding `CC[C@@H](NC(=O)N1C(=O)[C@H](Cc2cc(C)nc(N)c2)[C@H]1C(=O)N(C)c1ccnn1C)c1cc(C)ccc1F` [Compound 1-164, (2S,3R)-3-((2-amino-6-methylpyridin-4-yl)methyl)-N2-(1-methyl-1H-pyrazol-5-yl)-N1-((R)-1-(2-fluoro-5-methylphenyl)propyl)-N2-methyl-4-oxoazetidine-1,2-dicarboxamide], the IC50 was below 10 nM.
Then `CC[C@@H](NC(=O)N1C(=O)[C@H](Cc2ccnc(N)c2)[C@H]1C(=O)N(C)c1nncn1C)c1ccccc1` [Compound 1-165, (2S,3R)-3-((2-aminopyridin-4-yl)methyl)-N2-(4-methyl-4H-1,2,4-triazol-3-yl)-N1-((R)-1-phenylpropyl)-N2-methyl-4-oxoazetidine-1,2-dicarboxamide], with 10 to 100 nM.
Consider `CC[C@@H](NC(=O)N1C(=O)[C@H](Cc2cc(C)nc(N)c2)[C@H]1C(=O)N(C)c1ccnn1C)c1cc(C)ccc1C` [Compound 1-166, (2S,3R)-3-((2-amino-6-methylpyridin-4-yl)methyl)-N2-(1-methyl-1H-pyrazol-5-yl)-N1-((R)-1-(2,5-dimethylphenyl)propyl)-N2-methyl-4-oxoazetidine-1,2-dicarboxamide], for which the half-maximal inhibitory concentration (IC50) is below 10 nM.
Then `CC[C@@H](NC(=O)N1C(=O)[C@H](Cc2ccnc(N)c2)[C@H]1C(=O)N(C)c1nnco1)c1ccccc1` [Compound 1-167, (2S,3R)-3-((2-aminopyridin-4-yl)methyl)-N2-(1,3,4-oxadiazol-2-yl)-N1-((R)-1-phenylpropyl)-N2-methyl-4-oxoazetidine-1,2-dicarboxamide], with below 10 nM; and `CC[C@@H](NC(=O)N1C(=O)[C@H](Cc2ccnc(N)c2)[C@H]1C(=O)N(C)c1nncs1)c1ccccc1` [Compound 1-168, (2S,3R)-3-((2-aminopyridin-4-yl)methyl)-N2-(1,3,4-thiadiazol-2-yl)-N1-((R)-1-phenylpropyl)-N2-methyl-4-oxoazetidine-1,2-dicarboxamide], with below 10 nM.
Under `CC[C@@H](NC(=O)N1C(=O)[C@H](Cc2cc(C)nc(N)c2)[C@H]1C(=O)N(C)c1cnn(C)c1)c1ccc(F)cc1` [Compound 1-169, (2S,3R)-3-((2-amino-6-methylpyridin-4-yl)methyl)-N2-(1-methyl-1H-pyrazol-4-yl)-N1-((R)-1-(4-fluorophenyl)propyl)-N2-methyl-4-oxoazetidine-1,2-dicarboxamide] stands 10 to 100 nM; under `CC[C@@H](NC(=O)N1C(=O)[C@H](Cc2cc(C)nc(N)c2)[C@H]1C(=O)N(C)c1cnn(C)c1)c1ccc(Cl)cc1` [Compound 1-170, (2S,3R)-3-((2-amino-6-methylpyridin-4-yl)methyl)-N2-(1-methyl-1H-pyrazol-4-yl)-N1-((R)-1-(4-chlorophenyl)propyl)-N2-methyl-4-oxoazetidine-1,2-dicarboxamide], 10 to 100 nM; under `CC[C@@H](NC(=O)N1C(=O)[C@H](Cc2cc(C)nc(N)c2)[C@H]1C(=O)N(C)c1cnn(C)c1)c1ccc(F)c(C)c1` [Compound 1-171, (2S,3R)-3-((2-amino-6-methylpyridin-4-yl)methyl)-N2-(1-methyl-1H-pyrazol-4-yl)-N1-((R)-1-(4-fluoro-3-methylphenyl)propyl)-N2-methyl-4-oxoazetidine-1,2-dicarboxamide], 10 to 100 nM.
Regarding `CC[C@@H](NC(=O)N1C(=O)[C@H](Cc2cc(C)nc(N)c2)[C@H]1C(=O)N(C)c1cnn(C)c1)c1ccc(C)c(F)c1` [Compound 1-172, (2S,3R)-3-((2-amino-6-methylpyridin-4-yl)methyl)-N2-(1-methyl-1H-pyrazol-4-yl)-N1-((R)-1-(3-fluoro-4-methylphenyl)propyl)-N2-methyl-4-oxoazetidine-1,2-dicarboxamide], the half-maximal inhibitory concentration (IC50) was below 10 nM.
Under `CC[C@@H](NC(=O)N1C(=O)[C@H](Cc2cc(C)nc(N)c2)[C@H]1C(=O)N(C)c1cnn(C)c1)c1cccc(C)c1C` [Compound 1-173, (2S,3R)-3-((2-amino-6-methylpyridin-4-yl)methyl)-N2-(1-methyl-1H-pyrazol-4-yl)-N1-((R)-1-(2,3-dimethylphenyl)propyl)-N2-methyl-4-oxoazetidine-1,2-dicarboxamide] stands 10 to 100 nM; under `CC[C@@H](NC(=O)N1C(=O)[C@H](Cc2cc(C)nc(N)c2)[C@H]1C(=O)N(C)c1cnn(C)c1)c1cccc(F)c1F` [Compound 1-174, (2S,3R)-3-((2-amino-6-methylpyridin-4-yl)methyl)-N2-(1-methyl-1H-pyrazol-4-yl)-N1-((R)-1-(2,3-difluorophenyl)propyl)-N2-methyl-4-oxoazetidine-1,2-dicarboxamide], 10 to 100 nM.
As to `CC[C@@H](NC(=O)N1C(=O)[C@H](Cc2cc(C)nc(N)c2)[C@H]1C(=O)N(C)c1cnn(C)c1)c1ccc(C)c(C)c1` [Compound 1-175, (2S,3R)-3-((2-amino-6-methylpyridin-4-yl)methyl)-N2-(1-methyl-1H-pyrazol-4-yl)-N1-((R)-1-(3,4-dimethylphenyl)propyl)-N2-methyl-4-oxoazetidine-1,2-dicarboxamide], the IC50 is below 10 nM.
Under `CC[C@@H](NC(=O)N1C(=O)[C@H](Cc2cc(C)nc(N)c2)[C@H]1C(=O)N(C)c1cnn(C)c1)c1cc(C)ccc1C` [Compound 1-176, (2S,3R)-3-((2-amino-6-methylpyridin-4-yl)methyl)-N2-(1-methyl-1H-pyrazol-4-yl)-N1-((R)-1-(2,5-dimethylphenyl)propyl)-N2-methyl-4-oxoazetidine-1,2-dicarboxamide] stands 10 to 100 nM.

A word on the IC50: it is the concentration needed to halve the response being measured.
